Legend:
ROCK1 = ROCK1 (Homo sapiens (Human), UniProt Q13464); test: Rho-associated coiled-coil kinase (ROCK) assay, ADP-Glo system; assay type: biochemical; conditions: 0.1 μg ROCK1, 1 μg S6K substrate, 100 μM ATP, 60 min
Description: Rho-associated coiled-coil kinase (ROCK) assays were performed with the ADP-Glo system using 0.1 μg ROCK1 and 1 μg S6K substrate, and 100 μM ATP for 60 min prior to addition of ADP-GLO Reagent, and allowed to incubate for an additional 40 min prior to the addition of the Kinase Detection Reagent and imaging on a PHERASTAR system.

GRK2 [1] = target: T1, GRK2 (Homo sapiens (Human), UniProt P25098); test: GRK2 kinetic assay (phosphorylation of bROS or tubulin, phosphorimaging); assay type: biochemical; conditions: 50 nM GRK, 5 μM ATP, 5 min reaction
Description: The low salt concentration and DDM were used to maximize GRK activity and disrupt small molecule aggregates from forming, respectively. […] Data was analyzed and inhibition curves were fit via GraphPad Prism.

GRK2 [2] = target: T1, GRK2; conditions: literature (Setyawan et al. 1999; Tesmer et al. 2010); cited from earlier work

T1 sequence (P25098 whole entry, species assumed): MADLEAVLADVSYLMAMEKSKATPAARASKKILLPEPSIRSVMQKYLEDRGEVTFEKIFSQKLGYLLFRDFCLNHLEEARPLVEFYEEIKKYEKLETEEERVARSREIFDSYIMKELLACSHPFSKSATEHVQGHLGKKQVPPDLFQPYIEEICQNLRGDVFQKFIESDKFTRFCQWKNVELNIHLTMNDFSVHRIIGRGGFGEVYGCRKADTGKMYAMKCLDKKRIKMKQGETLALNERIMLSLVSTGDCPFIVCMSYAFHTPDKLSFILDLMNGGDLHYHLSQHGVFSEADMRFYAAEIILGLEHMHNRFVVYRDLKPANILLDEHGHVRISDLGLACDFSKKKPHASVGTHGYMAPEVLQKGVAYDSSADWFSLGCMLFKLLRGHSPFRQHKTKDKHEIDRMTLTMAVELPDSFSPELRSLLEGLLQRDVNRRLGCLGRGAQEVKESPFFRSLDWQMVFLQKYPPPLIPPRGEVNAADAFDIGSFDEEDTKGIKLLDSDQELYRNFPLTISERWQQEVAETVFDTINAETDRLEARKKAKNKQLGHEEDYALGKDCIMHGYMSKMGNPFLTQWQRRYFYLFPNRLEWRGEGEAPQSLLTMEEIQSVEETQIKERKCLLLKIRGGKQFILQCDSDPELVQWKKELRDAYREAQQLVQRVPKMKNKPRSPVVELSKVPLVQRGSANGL
Chain of ROCK1 (Q13464 whole entry, species assumed): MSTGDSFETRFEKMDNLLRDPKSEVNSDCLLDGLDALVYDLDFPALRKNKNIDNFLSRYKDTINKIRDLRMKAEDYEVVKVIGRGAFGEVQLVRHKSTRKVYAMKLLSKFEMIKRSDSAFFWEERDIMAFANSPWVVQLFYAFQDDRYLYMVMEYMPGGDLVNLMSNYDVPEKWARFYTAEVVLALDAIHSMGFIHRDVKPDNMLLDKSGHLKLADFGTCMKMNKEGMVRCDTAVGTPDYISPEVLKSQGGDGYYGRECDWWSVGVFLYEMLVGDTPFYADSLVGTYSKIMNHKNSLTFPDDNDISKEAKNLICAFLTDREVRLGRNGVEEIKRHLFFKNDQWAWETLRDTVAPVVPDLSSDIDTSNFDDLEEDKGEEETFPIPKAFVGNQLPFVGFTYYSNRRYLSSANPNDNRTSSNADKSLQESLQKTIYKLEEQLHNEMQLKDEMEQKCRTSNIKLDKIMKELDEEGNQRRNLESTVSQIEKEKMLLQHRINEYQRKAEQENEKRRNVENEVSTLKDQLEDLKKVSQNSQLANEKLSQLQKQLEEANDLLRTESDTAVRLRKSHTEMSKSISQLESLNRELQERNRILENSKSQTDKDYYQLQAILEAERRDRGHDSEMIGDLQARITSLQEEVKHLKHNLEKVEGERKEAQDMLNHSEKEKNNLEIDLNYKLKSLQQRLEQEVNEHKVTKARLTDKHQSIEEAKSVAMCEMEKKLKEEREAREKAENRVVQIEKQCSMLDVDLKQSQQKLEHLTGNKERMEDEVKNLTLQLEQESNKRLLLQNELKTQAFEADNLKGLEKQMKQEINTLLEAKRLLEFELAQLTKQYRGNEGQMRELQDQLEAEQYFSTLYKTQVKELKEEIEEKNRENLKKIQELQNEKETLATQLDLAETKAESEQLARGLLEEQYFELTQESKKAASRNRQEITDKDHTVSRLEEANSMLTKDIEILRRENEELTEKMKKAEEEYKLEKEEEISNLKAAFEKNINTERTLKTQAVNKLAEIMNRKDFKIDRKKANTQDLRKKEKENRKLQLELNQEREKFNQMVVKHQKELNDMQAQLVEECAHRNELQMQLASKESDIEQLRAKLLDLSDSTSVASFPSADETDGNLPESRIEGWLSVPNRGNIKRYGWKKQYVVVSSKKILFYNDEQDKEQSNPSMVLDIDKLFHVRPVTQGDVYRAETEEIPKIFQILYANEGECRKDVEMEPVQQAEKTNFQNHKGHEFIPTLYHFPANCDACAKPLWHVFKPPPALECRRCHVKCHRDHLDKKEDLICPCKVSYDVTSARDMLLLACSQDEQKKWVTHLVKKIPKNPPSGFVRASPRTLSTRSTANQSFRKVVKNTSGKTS

SMILES: CC1=C(C(=O)Nc2ccc3[nH]ncc3c2)C(c2ccc(F)c(C(=O)NCc3c(F)cccc3F)c2)NC(=O)N1 (stereo not shown) [Example E02, 4-(3-((2,6-difluorobenzyl)carbamoyl)-4-fluorophenyl)-N-(1H-indazol-5-yl)-6-methyl-2-oxo-1,2,3,4-tetrahydropyrimidine-5-carboxamide]
- IC50 (ROCK1): 61 nM
- IC50 (GRK2 [1]): 120 nM

SMILES: CC1=C(C(=O)Nc2ccc3[nH]ncc3c2)C(c2ccc(F)c(C(=O)NCc3nccc4ccccc34)c2)NC(=O)N1 (stereo not shown) [Example E08, 4-(4-fluoro-3-((isoquinolin-1-ylmethyl)carbamoyl)phenyl)-N-(1H-indazol-5-yl)-6-methyl-2-oxo-1,2,3,4-tetrahydropyrimidine-5-carboxamide]
- IC50 (ROCK1): 17 nM
- IC50 (GRK2 [1]): 2600 nM

SMILES: CC1=C(C(=O)Nc2ccc3[nH]ncc3c2)C(c2ccc(F)c(CC(=O)N3CCOC(CCO)C3)c2)NC(=O)N1 (stereo not shown) [Example E31, 4-(4-fluoro-3-(2-(2-(2-hydroxyethyl)morpholino)-2-oxoethyl)phenyl)-N-(1H-indazol-5-yl)-6-methyl-2-oxo-1,2,3,4-tetrahydropyrimidine-5-carboxamide]
- IC50 (GRK2 [1]): 1500 nM

SMILES: CC1=C(C(=O)Nc2ccc3[nH]ncc3c2)C(c2ccc(F)c(CC(=O)N(CCO)Cc3ccco3)c2)NC(=O)N1 (stereo not shown) [Example E32, 4-(4-fluoro-3-(2-((furan-2-ylmethyl)(2-hydroxyethyl)amino)-2-oxoethyl)phenyl)-N-(1H-indazol-5-yl)-6-methyl-2-oxo-1,2,3,4-tetrahydropyrimidine-5-carboxamide]
- IC50 (GRK2 [1]): 500 nM

SMILES: CC1=C(C(=O)Nc2ccc3[nH]ncc3c2)C(c2ccc(F)c(CC(=O)NCC3CCN(C4CC4)CC3)c2)NC(=O)N1 (stereo not shown) [Example E33, 4-(3-(2-(((1-cyclopropylpiperidin-4-yl)methyl)amino)-2-oxoethyl)-4-fluorophenyl)-N-(1H-indazol-5-yl)-6-methyl-2-oxo-1,2,3,4-tetrahydropyrimidine-5-carboxamide]
- IC50 (GRK2 [1]): 680 nM

SMILES: CC1=C(C(=O)Nc2ccc3[nH]ncc3c2)C(c2ccc(F)c(CC(=O)N(C)Cc3nc(C)c[nH]3)c2)NC(=O)N1 (stereo not shown) [Example E34, 4-(4-fluoro-3-(2-(methyl((4-methyl-1H-imidazol-2-yl)methyl)amino)-2-oxoethyl)phenyl)-N-(1H-indazol-5-yl)-6-methyl-2-oxo-1,2,3,4-tetrahydropyrimidine-5-carboxamide]
- IC50 (GRK2 [1]): 1200 nM

SMILES: C#CCN(Cc1ccco1)C(=O)Cc1cc(C2NC(=O)NC(C)=C2C(=O)Nc2ccc3[nH]ncc3c2)ccc1F (stereo not shown) [Example E35, 4-(4-fluoro-3-(2-((furan-2-ylmethyl)(prop-2-yn-1-yl)amino)-2-oxoethyl)phenyl)-N-(1H-indazol-5-yl)-6-methyl-2-oxo-1,2,3,4-tetrahydropyrimidine-5-carboxamide]
- IC50 (GRK2 [1]): 960 nM

SMILES: C#CCN(CC(C)C)C(=O)Cc1cc(C2NC(=O)NC(C)=C2C(=O)Nc2ccc3[nH]ncc3c2)ccc1F (stereo not shown) [Example E36, 4-(4-fluoro-3-(2-(isobutyl(prop-2-yn-1-yl)amino)-2-oxoethyl)phenyl)-N-(1H-indazol-5-yl)-6-methyl-2-oxo-1,2,3,4-tetrahydropyrimidine-5-carboxamide]
- IC50 (GRK2 [1]): 2600 nM

SMILES: CC1=C(C(=O)Nc2ccc3[nH]ncc3c2)C(c2ccc(F)c(CCC(=O)NCc3ncc(C)o3)c2)NC(=O)N1 (stereo not shown) [Example E37, 4-(4-fluoro-3-(3-(((5-methyloxazol-2-yl)methyl)amino)-3-oxopropyl)phenyl)-N-(1H-indazol-5-yl)-6-methyl-2-oxo-1,2,3,4-tetrahydropyrimidine-5-carboxamide]
- IC50 (GRK2 [1]): 4000 nM

SMILES: CC1=C(C(=O)Nc2ccc3[nH]ncc3c2)C(c2ccc(F)c(CCC(=O)NCCc3ccccc3)c2)NC(=O)N1 (stereo not shown) [Example E38, 4-(4-fluoro-3-(3-oxo-3-(phenethylamino)propyl)phenyl)-N-(1H-indazol-5-yl)-6-methyl-2-oxo-1,2,3,4-tetrahydropyrimidine-5-carboxamide]
- IC50 (GRK2 [1]): 7000 nM

SMILES: O=C(N[C@@H]1CNCCC[C@H]1OC(=O)c1cc(O)c(C(=O)c2c(O)cccc2C(=O)O)c(O)c1)c1ccc(O)cc1 [balanol]
- GRK2 inhibition potency (GRK2 [2]): low nanomolar range

Reference: US10023564B2, “G protein-coupled receptor kinase 2 inhibitors and methods for use of the same” (THE REGENTS OF THE UNIVERSITY OF MICHIGAN, priority 2014, dated 2018)
